Laboratory results: US20230067847A1, “COMBINATION OF BERBERINE AND DERIVATIVES THEREOF, AND VITAMIN B12” (NANJING NUTRABUILDING BIO-TECH CO., LTD., priority 2021, published 2023)

Key:
high-fat diet (HFD) mice [1] = assay: Fasting blood glucose in HFD mice during 3 months of supplementation; type: in vivo; conditions: after three months (12th week), gavage once daily, FIG. 1a
Description: (§1) The high-fat diet (HFD, containing 60% fat by energy) mice at 8 weeks of age were divided into three groups: (1) non-supplement group (Con, n=5); (2) DHB supplement group (DHB, 100 mg/kg, n=5); […] VB12=100 mg/kg: 200 mg/kg, n=5). All mice were administered these things before each major meal for once daily (2 g/kg body weight) by gavage in normal saline solution for 3 months. Blood samples were collected from tail tips in a fasting state to measure serum VB 12, serum homocysteine, glucose, and serum holo-transcobalamin II (holo-TCII, a biologically active fraction for TCII receptors synthesis) and weighed the mice for 0th, 2th, 4th, 6th, 8th, 10th and 12th week. After 3 months of supplementation, glycated hemoglobin (HbA1c) was measured. Also, the insulin tolerance test was performed after 3 months of supplementation after subcutaneous injection of insulin (0.4 U/kg, 0.05 ml/10 g body weight) for 0, 30, 90 minutes. […] Elevated homocysteine was defined as > 15 µM/L. Vitamin B12 levels and holo-TCII were measured by using immunoassay analyzer to confirm the improvement in TCII receptors synthesis and VB12 levels. Serum homocysteine levels were measured using the chemiluminescent microparticle immunoassay to show the VB12 levels. HbA1c was determined with automated glycohemoglobin analyzer, which can indicate the effect of blood glucose control during the trial. […]

high-fat diet (HFD) mice [2] = assay: Serum VB12 level in HFD mice (immunoassay analyzer); conditions: mouse, in vivo
Description: The high-fat diet (HFD, containing 60% fat by energy) mice at 8 weeks of age were divided into three groups: (1) non-supplement group (Con, n=5); (2) DHB supplement group (DHB, 100 mg/kg, n=5); (3) the combination of DHB and VB12 supplement group (DHB+VB12, DHB: VB12=100 mg/kg: 200 mg/kg, n=5). All mice were administered these things before each major meal for once daily (2 g/kg body weight) by gavage in normal saline solution for 3 months.
Blood samples were collected from tail tips in a fasting state to measure serum VB 12, serum homocysteine, glucose, and serum holo-transcobalamin II (holo-TCII, a biologically active fraction for TCII receptors synthesis) and weighed the mice for 0th, 2th, 4th, 6th, 8th, 10th and 12th week. After 3 months of supplementation, glycated hemoglobin (HbA1c) was measured. […] Elevated homocysteine was defined as > 15 µM/L. Vitamin B12 levels and holo-TCII were measured by using immunoassay analyzer to confirm the improvement in TCII receptors synthesis and VB12 levels. Serum homocysteine levels were measured using the chemiluminescent microparticle immunoassay to show the VB12 levels. HbA1c was determined with automated glycohemoglobin analyzer, which can indicate the effect of blood glucose control during the trial. […]

high-fat diet (HFD) mice [3] = assay: Insulin tolerance test in HFD mice after 3 months of supplementation; type: in vivo; conditions: 90 minutes after subcutaneous insulin 0.4 U/kg, FIG. 1d
Description: as §1

high-fat diet (HFD) mice [4] = assay: Glycated hemoglobin (HbA1c) in HFD mice after 3 months of supplementation; type: in vivo; conditions: after three months of supplementation, FIG. 1e
Description: as §1

serum total VB12 change (high-fat diet (HFD) mice [2]): significantly decreased
SMILES: COc1ccc2c(c1OC)CN1CCc3cc4c(cc3C1=C2)OCO4 [DHB, dihydroberberine]
blood glucose level decreased compared to the control group (high-fat diet (HFD) mice [1]): about 35% | blood glucose level lower than control group in insulin tolerance test (high-fat diet (HFD) mice [3]): about 15% | HbA1c level decreased compared to the control group (high-fat diet (HFD) mice [4]): about 20%
